Experiments:
Format in all cases: in vivo
[1] = tested on: Beet Armyworm (Spodoptera exigua); assay: Bioassay on Beet Armyworm (BAW), 128-well diet tray assay; conditions: 50 μg/cm^2 on artificial diet, second instar larvae, five to seven days, 25° C.
Description: Bioassays on BAW were conducted using a 128-well diet tray assay. One to five second instar BAW larvae were placed in each well (3 mL) of the diet tray that had been previously filled with 1 mL of artificial diet to which 50 μg/cm^2 of the test molecule (dissolved in 50 μL of 90:10 acetone-water mixture) had been applied (to each of eight wells) and then allowed to dry. Trays were covered with a clear self-adhesive cover and held at 25° C., 14:10 light-dark for five to seven days. Percent mortality was recorded for the larvae in each well; activity in the eight wells was then averaged. The results are indicated in the table entitled “Table ABC: Biological Results” (See Table Section).
(§1) Bioassays on BAW and CL were conducted according to the procedures outlined in Example A: Bioassays on Beet Armyworm (“BAW”) and Cabbage Looper (“CL”) using the indicated concentrations.

[2] = tested on: Cabbage Looper (Trichoplusia ni); assay: Bioassay on Cabbage Looper (CL), 128-well diet tray assay; conditions: 50 μg/cm^2 on artificial diet, second instar larvae, five to seven days, 25° C.
Description: Bioassays on CL were conducted using a 128-well diet tray assay. One to five second instar CL larvae were placed in each well (3 mL) of the diet tray that had been previously filled with 1 mL of artificial diet to which 50 μg/cm^2 of the test molecule (dissolved in 50 μL of 90:10 acetone-water mixture) had been applied (to each of eight wells) and then allowed to dry. Trays were covered with a clear self-adhesive cover and held at 25° C., 14:10 light-dark for five to seven days. Percent mortality was recorded for the larvae in each well; activity in the eight wells was then averaged. The results are indicated in the table entitled “Table ABC: Biological Results” (See Table Section).
as §1

[3] = tested on: Yellow Fever Mosquito (Aedes aegypti); conditions: 4000 ppm master plate solution diluted, about 1 day-old larvae, scored on mortality after 3 days
Description: Master plates containing 400 μg of a molecule dissolved in 100 μL of dimethyl sulfoxide (DMSO) (equivalent to a 4000 ppm solution) are used. A master plate of assembled molecules contains 15 μL per well. To this plate, 135 μL of a 90:10 water:acetone mixture is added to each well. A robot (Biomek® NXP Laboratory Automation Workstation) is programmed to dispense 15 μL aspirations from the master plate into an empty 96-well shallow plate (“daughter” plate). There are 6 reps (“daughter” plates) created per master. The created daughter plates are then immediately infested with YFM larvae.
The day before plates are to be treated, mosquito eggs are placed in Millipore water containing liver powder to begin hatching (4 g. into 400 mL). After the daughter plates are created using the robot, they are infested with 220 μL of the liver powder/larval mosquito mixture (about 1 day-old larvae). After plates are infested with mosquito larvae, a non-evaporative lid is used to cover the plate to reduce drying. Plates are held at room temperature for 3 days prior to grading. After 3 days, each well is observed and scored based on mortality. The results are indicated in the table entitled “Table ABC: Biological Results” (See Table Section).

[4] = tested on: Green Peach Aphid (Myzus persicae); assay: Bioassay on Green Peach Aphid (GPA), foliar spray on cabbage seedlings; conditions: 200 ppm spray on cabbage seedlings, graded after three days, Abbott corrected % control
Description: Cabbage seedlings grown in 3-inch pots, with 2-3 small (3-5 cm) true leaves, were used as test substrate. The seedlings were infested with 20-50 GPA (wingless adult and nymph stages) one day prior to chemical application. Four pots with individual seedlings were used for each treatment. Test molecules (2 mg) were dissolved in 2 mL of acetone/methanol (1:1) solvent, forming stock solutions of 1000 ppm test molecule. The stock solutions were diluted 5× with 0.025% Tween 20 in water to obtain the solution at 200 ppm test molecule. A hand-held aspirator-type sprayer was used for spraying a solution to both sides of […] leaves until runoff. Reference plants (solvent check) were sprayed with the diluent only containing 20% by volume of acetone/methanol (1:1) solvent. Treated plants were held in a holding room for three days at approximately 25° C. and ambient relative humidity (RH) prior to grading. Evaluation was conducted by counting the number of live aphids per plant under a microscope. Percent Control was measured by using Abbott's correction formula (W. S. Abbott, “A Method of Computing the Effectiveness of an Insecticide” J. Econ. Entomol. 18 (1925), pp. 265-267) as follows. Corrected % Control=100*(X−Y)/X • where • X=No. of live aphids on solvent check plants and • Y=No. of live aphids on treated plants

Row | SMILES | BAW % Control (or Mortality) rating [1] | CL % Control (or Mortality) rating [2] | YFM % Control (or Mortality) rating [3] | GPA % Control (or Mortality) rating [4]
1 | Cc1cc(C(/C=C(\F)c2ccc(C(=O)NN(C)C(=O)NCC(F)(F)F)c(C(F)(F)F)c2)C(F)(F)F)cc(Cl)c1Cl (stereo not shown) [F30, (Z)-2-(4-(3-(3,4-Dichloro-5-methylphenyl)-1,4,4,4-tetrafluorobut-1-en-1-yl)-2-(trifluoromethyl)benzoyl)-1-methyl-N-(2,2,2-trifluoroethyl)hydrazine-1-carboxamide] | A (50-100) | A (50-100) | D (No activity noticed in this bioassay) | 
2 | CN(NC(=O)c1ccc(/C(F)=C/C(c2ccc(Br)c(Br)c2)C(F)(F)F)cc1C(F)(F)F)C(=O)NCC(F)(F)F (stereo not shown) [F26, (Z)-2-(4-(3-(3,4-Dibromophenyl)-1,4,4,4-tetrafluorobut-1-en-1-yl)-2-(trifluoromethyl)benzoyl)-1-methyl-N-(2,2,2-trifluoroethyl)hydrazinecarboxamide] | B (More than 0-Less than 50) | B (More than 0-Less than 50) | A (80-100) | 
3 | O=C(CCC(F)(F)F)NNC(=O)c1ccc(/C(F)=C/C(c2cc(Cl)c(Br)c(Cl)c2)C(F)(F)F)cc1C(F)(F)F (stereo not shown) [F27, (Z)-4-(3-(4-Bromo-3,5-dichlorophenyl)-1,4,4,4-tetrafluorobut-1-en-1-yl)-N′-(4,4,4-trifluorobutanoyl)-2-(trifluoromethyl)benzohydrazide] | A (50-100) | A (50-100) | A (80-100) | 
4 | CN(NC(=O)c1ccc(/C(F)=C/C(c2cc(Cl)cc(Cl)c2)C(F)(F)F)cc1C(F)(F)F)C(=O)NCC(F)(F)F (stereo not shown) [F8, (Z)-2-(4-(3-(3,5-Dichlorophenyl)-1,4,4,4-tetrafluorobut-1-en-1-yl)-2-(trifluoromethyl)benzoyl)-1-methyl-N-(2,2,2-trifluoroethyl) hydrazinecarboxamide] | A (50-100) | A (50-100) | A (80-100) | 
5 | Cc1cc(C(/C=C(\F)c2ccc(C(=O)NN(C)C(=O)NCC(F)(F)F)c(C(F)(F)F)c2)C(F)(F)F)cc(C)c1Cl (stereo not shown) [F16, (Z)-2-(4-(3-(4-Chloro-3,5-dimethylphenyl)-1,4,4,4-tetrafluorobut-1-en-1-yl)-2-(trifluoromethyl)benzoyl)-1-methyl-N-(2,2,2-trifluoroethyl)hydrazinecarboxamide] | A (50-100) | A (50-100) | A (80-100) | 
6 | CN(NC(=O)c1ccc(/C(F)=C/C(c2cc(Br)cc(Br)c2)C(F)(F)F)cc1C(F)(F)F)C(=O)NCC(F)(F)F (stereo not shown) [F14, (Z)-2-(4-(3-(3,5-dibromophenyl)-1,4,4,4-tetrafluorobut-1-en-1-yl)-2-(trifluoromethyl)benzoyl)-1-methyl-N-(2,2,2-trifluoroethyl)hydrazinecarboxamide] | A (50-100) | A (50-100) | A (80-100) | 
7 | O=C(CCC(F)(F)F)NNC(=O)c1ccc(/C(F)=C/C(c2cc(Cl)c(F)c(Cl)c2)C(F)(F)F)cc1C(F)(F)F (stereo not shown) [F10, (Z)-4-(3-(3,5-Dichloro-4-fluorophenyl)-1,4,4,4-tetrafluorobut-1-en-1-yl)-N′-(4,4,4-trifluorobutanoyl)-2-(trifluoromethyl)benzohydrazide] | A (50-100) | A (50-100) | A (80-100) | 
8 | CN(NC(=O)c1ccc(/C(F)=C/C(c2cc(Cl)c(F)c(Cl)c2)C(F)(F)F)cc1C(F)(F)F)C(=O)NCC(F)(F)F (stereo not shown) [F22, (Z)-2-(4-(3-(3,5-Dichloro-4-fluorophenyl)-1,4,4,4-tetrafluorobut-1-en-1-yl)-2-(trifluoromethyl)benzoyl)-1-methyl-N-(2,2,2-trifluoroethyl)hydrazinecarboxamide] | A (50-100) | A (50-100) | A (80-100) | 
9 | CN(NC(=O)c1ccc(/C(F)=C/C(c2cc(Cl)cc(Br)c2)C(F)(F)F)cc1C(F)(F)F)C(=O)NCC(F)(F)F (stereo not shown) [F25, (Z)-2-(4-(3-(3-Bromo-5-chlorophenyl)-1,4,4,4-tetrafluorobut-1-en-1-yl)-2-(trifluoromethyl)benzoyl)-1-methyl-N-(2,2,2-trifluoroethyl)hydrazinecarboxamide] | A (50-100) | A (50-100) | A (80-100) | 
10 | O=C(CCC(F)(F)F)NNC(=O)c1ccc(/C(F)=C/C(c2cc(Br)cc(Br)c2)C(F)(F)F)cc1C(F)(F)F (stereo not shown) [F9, (Z)-4-(3-(3,5-Dibromophenyl)-1,4,4,4-tetrafluorobut-1-en-1-yl)-N′-(4,4,4-trifluorobutanoyl)-2-(trifluoromethyl)benzohydrazide] | A (50-100) | A (50-100) | A (80-100) | 
11 | O=C(CCC(F)(F)F)NNC(=O)c1ccc(/C(F)=C/C(c2cc(Br)c(Cl)c(Br)c2)C(F)(F)F)cc1C(F)(F)F (stereo not shown) [F5, (Z)-4-(3-(3,5-dibromo-4-chlorophenyl)-1,4,4,4-tetrafluorobut-1-en-1-yl)-N′-(4,4,4-trifluorobutanoyl)-2-(trifluoromethyl)benzohydrazide] | A (50-100) | A (50-100) | A (80-100) | 
12 | O=C(CCC(F)(F)F)NNC(=O)c1ccc(/C(F)=C/C(c2cc(Cl)cc(Cl)c2)C(F)(F)F)cc1C(F)(F)F (stereo not shown) [F6, (Z)-4-(3-(3,5-Dichlorophenyl)-1,4,4,4-tetrafluorobut-1-en-1-yl)-N′-(4,4,4-trifluorobutanoyl)-2-(trifluoromethyl)benzohydrazide] | A (50-100) | A (50-100) | A (80-100) | 
13 | CN(NC(=O)c1ccc(/C(F)=C/C(c2ccc(Cl)c(Cl)c2)C(F)(F)F)cc1C(F)(F)F)C(=O)NCC(F)(F)F (stereo not shown) [F15] | A (50-100) | A (50-100) | A (80-100) | 
14 | CN(NC(=O)c1ccc(/C(F)=C/C(c2ccc(Cl)c(Br)c2)C(F)(F)F)cc1C(F)(F)F)C(=O)NCC(F)(F)F (stereo not shown) [PF8] | A (50-100) | A (50-100) | A (80-100) | B (More than 0-Less than 80)
15 | O=C(CCC(F)(F)F)NNC(=O)c1ccc(/C(F)=C/C(c2ccc(Cl)c(Cl)c2)C(F)(F)F)cc1C(F)(F)F (stereo not shown) [F7, (Z)-4-(3-(3,4-Dichlorophenyl)-1,4,4,4-tetrafluorobut-1-en-1-yl)-N′-(4,4,4-trifluorobutanoyl)-2-(trifluoromethyl)benzohydrazide] | A (50-100) | A (50-100) | A (80-100) | 

— patent US9930892B2, “Molecules having pesticidal utility, and intermediates, compositions, and processes, related thereto” (Dow AgroSciences LLC, priority 2016, dated 2018)
